Data: article PMC5429603, “Discovery and characterization of verinurad, a potent and specific inhibitor of URAT1 for the treatment of hyperuricemia and gout” (Scientific Reports, 2017)
Numbering of substitutions follows the chain as printed.

Assays:
human URAT1 = target: T1, human URAT1 (Homo sapiens, UniProt Q96S37); assay: URAT1 binding assay with 3H-verinurad, human URAT1 membranes
T1 sequence (Q96S37 1-553): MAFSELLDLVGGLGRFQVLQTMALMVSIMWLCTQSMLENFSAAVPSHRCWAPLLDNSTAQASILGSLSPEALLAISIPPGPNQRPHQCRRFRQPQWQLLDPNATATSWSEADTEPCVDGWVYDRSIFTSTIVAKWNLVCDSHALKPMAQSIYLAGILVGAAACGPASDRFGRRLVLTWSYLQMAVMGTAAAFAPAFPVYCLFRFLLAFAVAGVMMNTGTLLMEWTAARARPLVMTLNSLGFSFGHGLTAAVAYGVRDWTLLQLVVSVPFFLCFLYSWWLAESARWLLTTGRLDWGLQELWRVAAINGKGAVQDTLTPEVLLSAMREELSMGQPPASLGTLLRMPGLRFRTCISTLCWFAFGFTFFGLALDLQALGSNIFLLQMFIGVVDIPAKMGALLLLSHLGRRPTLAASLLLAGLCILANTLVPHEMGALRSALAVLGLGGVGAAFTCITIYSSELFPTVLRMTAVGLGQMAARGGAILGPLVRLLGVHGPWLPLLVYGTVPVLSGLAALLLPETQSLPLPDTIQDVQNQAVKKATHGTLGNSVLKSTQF
Method: Membranes were prepared from cells transfected on the previous day with URAT1 expression constructs. Cells (5–10 × 10^8) were harvested in 1 ml ice-cold binding buffer (25 mM HEPES pH 7.3, 125 mM sodium gluconate) containing complete, EDTA-free protease inhibitor cocktail (Sigma). Cells were lysed with 100 strokes in a 2 ml dounce homogenizer using a tight-fitting “B” stem. Lysates were transferred to 1.5 mL Eppendorf tubes and centrifuged at 250 rcf for 5 minutes at 2 °C, and supernatants were transferred to fresh tubes and centrifuged again at 18,000 rcf for 20 minutes at 2 °C. The pellets (membrane fractions) were resuspended in 1 ml of ice-cold binding buffer containing protease inhibitors and frozen at −80 °C. Protein was measured using the Bio-Rad protein assay dye reagent concentrate.
Samples were then rapidly filtered through 25 mm glass fiber/1.2 µM PES 96-well filter plates (Corning FiltrEX 3510), and washed once with 200 µl ice-cold binding buffer. The plates were then subjected to scintillation counting. All samples were assayed in triplicate.
GraphPad Prism software was used for non-linear regression and statistical analyses. […] For kinetic measurements (K m and B max values), the “one site – specific binding” equation was used, after subtracting transport or binding measurements from control transfected cells. Statistical significance was assessed using Student’s unpaired t-tests.

human URAT1 h-F449Y = target: T2, human URAT1 h-F449Y (Homo sapiens, UniProt Q96S37, F449Y); assay: URAT1 activity assay, h-F449Y; assay type: cell-based
T2 construct: expressed in transfected cells; host or cells: HEK-293T
T2 sequence (Q96S37 1-553 F449Y): T1 sequence (Q96S37 1-553) with F449Y
From the text: (§1) Human URAT1 (GenBank BC053348.1, Homo sapiens SLC22A12), rat URAT1 (NCBI NM_001034943.1, Rattus norvegicus Slc22a12) and human OAT4 (NCBI NM_018484.2, Homo sapiens SLC22A11) genes were purchased from Origene Technologies, Inc. and subcloned into pCMV6/neo using NotI. Where indicated, controls transfections used pCMV6/neo. Mutants were produced by site-directed mutagenesis using the QuikChange Lightning Multi Site-Directed Mutagenesis Kit (Agilent Technologies). […] Mutagenic primer sequences are provided in ref. [15] and mutagenic primer sequences for previously unreported mutants shown in Supplementary Table 1. All constructs used in this study were untagged. Human OAT1 was purchased from Fisher Scientific (catalog # MHS1010–7508183 in pSPORT6, NCBI NM_153276.2, Homo sapiens SLC22A6).
(§2) HEK-293T cells were maintained in DMEM/high glucose/L-glutamine/HEPES supplemented with 1 mM sodium pyruvate (Life Technologies) and 10% FBS (PAA Laboratories) at 37 °C in 5% CO2. To express URAT1, OAT4 or OAT1, plasmids were reverse transfected into HEK-293T cells. DNA (10 µg) was mixed with 30 µl of DreamFect Gold (Boca Scientific) in 2 ml OptiMem (Life Technologies). After 20 minutes, 18 ml of media containing 2 × 10^7 cells in suspension was added and mixed, and 200 µl per well were plated onto white clear-bottomed poly-D-lysine coated 96-well plates (BD Biosciences). The cells were assayed the following day.
(§3) URAT1 and OAT4 activity assays were performed in assay buffer consisting of 25 mM MES pH 5.5 (from a 1 M MES solution [Sigma] adjusted to pH 5.5 with sodium hydroxide), 125 mM sodium gluconate, 4.8 mM potassium gluconate, 1.2 mM monobasic potassium phosphate, 1.2 mM magnesium sulfate, 1.3 mM calcium gluconate and 5.6 mM glucose. URAT1 inhibitors were serially diluted into assay buffer and added to the cells for 5 minutes prior to addition of substrate. URAT1-expressing cells were incubated with 100 µM ^14C-uric acid for 10 minutes and OAT4-expressing cells were incubated with 20 µM carboxyfluorescein (Life Technologies, Inc.) for 5 minutes. Cells were then washed three times in 25 mM MES pH 5.5/125 mM sodium gluconate, and solubilized in Ultima Gold (Perkin Elmer) prior to liquid scintillation counting. Each treatment was measured in triplicate.

rat URAT1 r-N35S/Y365F = rat URAT1 r-N35S/Y365F (Rattus norvegicus, UniProt Q3ZAV1, N35S/Y365F); assay: cell-based
From the text: as §1, §2, §3

rat URAT1 r-P27S = rat URAT1 r-P27S (Rattus norvegicus, UniProt Q3ZAV1, P27S); assay: cell-based
From the text: as §1, §2, §3

rat URAT1 r-Y365F/M481I = rat URAT1 r-Y365F/M481I (Rattus norvegicus, UniProt Q3ZAV1, M481I/Y365F); assay: cell-based
From the text: as §1, §2, §3

rat URAT1 r-L29M = rat URAT1 r-L29M (Rattus norvegicus, UniProt Q3ZAV1, L29M); assay: cell-based
From the text: as §1, §2, §3

rat URAT1 r-V31L = rat URAT1 r-V31L (Rattus norvegicus, UniProt Q3ZAV1, V31L); assay: cell-based
From the text: as §1, §2, §3

rat URAT1 r-A21T = rat URAT1 r-A21T (Rattus norvegicus, UniProt Q3ZAV1, A21T); assay: cell-based
From the text: as §1, §2, §3

rat URAT1 r-V22M = rat URAT1 r-V22M (Rattus norvegicus, UniProt Q3ZAV1, V22M); assay: cell-based
From the text: as §1, §2, §3

rat URAT1 r-L18V = rat URAT1 r-L18V (Rattus norvegicus, UniProt Q3ZAV1, L18V); assay: cell-based
From the text: as §1, §2, §3

rat URAT1 r-N35S/M481I = rat URAT1 r-N35S/M481I (Rattus norvegicus, UniProt Q3ZAV1, M481I/N35S); assay: cell-based
From the text: as §1, §2, §3

Sequence of rat URAT1 r-P27S (Q3ZAV1 whole entry P27S): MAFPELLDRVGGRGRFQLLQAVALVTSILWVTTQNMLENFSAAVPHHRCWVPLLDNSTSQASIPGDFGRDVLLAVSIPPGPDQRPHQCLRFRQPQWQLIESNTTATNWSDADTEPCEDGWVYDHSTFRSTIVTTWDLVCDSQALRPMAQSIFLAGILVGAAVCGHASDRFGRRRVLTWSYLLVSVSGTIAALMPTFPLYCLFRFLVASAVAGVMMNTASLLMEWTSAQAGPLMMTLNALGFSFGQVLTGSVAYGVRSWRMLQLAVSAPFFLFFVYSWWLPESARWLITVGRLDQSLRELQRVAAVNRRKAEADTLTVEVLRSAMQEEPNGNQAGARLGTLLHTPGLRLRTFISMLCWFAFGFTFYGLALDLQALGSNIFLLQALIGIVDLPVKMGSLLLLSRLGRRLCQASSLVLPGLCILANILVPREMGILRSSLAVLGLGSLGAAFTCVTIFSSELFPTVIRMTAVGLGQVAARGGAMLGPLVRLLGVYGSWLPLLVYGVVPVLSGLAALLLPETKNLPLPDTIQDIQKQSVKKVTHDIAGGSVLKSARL
Sequence of rat URAT1 r-L18V (Q3ZAV1 whole entry L18V): as the sequence (Q3ZAV1 whole entry P27S) above, with L18V, S27P counted along it
Sequence of rat URAT1 r-N35S/M481I (Q3ZAV1 whole entry N35S/M481I): as the sequence (Q3ZAV1 whole entry P27S) above, with S27P, N35S, M481I counted along it
Sequence of rat URAT1 r-A21T (Q3ZAV1 whole entry A21T): as the sequence (Q3ZAV1 whole entry P27S) above, with A21T, S27P counted along it
Sequence of rat URAT1 r-Y365F/M481I (Q3ZAV1 whole entry Y365F/M481I): as the sequence (Q3ZAV1 whole entry P27S) above, with S27P, Y365F, M481I counted along it
Sequence of rat URAT1 r-L29M (Q3ZAV1 whole entry L29M): as the sequence (Q3ZAV1 whole entry P27S) above, with S27P, L29M counted along it
Sequence of rat URAT1 r-V22M (Q3ZAV1 whole entry V22M): as the sequence (Q3ZAV1 whole entry P27S) above, with V22M, S27P counted along it
Sequence of rat URAT1 r-N35S/Y365F (Q3ZAV1 whole entry N35S/Y365F): as the sequence (Q3ZAV1 whole entry P27S) above, with S27P, N35S, Y365F counted along it
Sequence of rat URAT1 r-V31L (Q3ZAV1 whole entry V31L): as the sequence (Q3ZAV1 whole entry P27S) above, with S27P, V31L counted along it

IC50 (human URAT1): 0.0078 µM
Ki (human URAT1): 0.0069 µM
mode of inhibition of 3H-verinurad binding (human URAT1; human URAT1 membranes): competitive inhibition
fold reduced affinity compared to human URAT1 (human URAT1 h-F449Y; h-F449Y): the same affinity
IC50 (human URAT1 h-F449Y; h-F449Y binding site point mutant): 0.025 µM
IC50 (rat URAT1 r-N35S/Y365F): 0.47 µM
IC50 (rat URAT1 r-P27S): 27 ± 3.4 µM
fold increase in affinity (rat URAT1 r-P27S; printed r-S27P, vs rat URAT1): 1.5 fold
IC50 (rat URAT1 r-Y365F/M481I): 0.59 µM
IC50 (rat URAT1 r-L29M): 29 ± 3.3 µM
IC50 (rat URAT1 r-V31L): 29 ± 3.2 µM
IC50 (rat URAT1 r-A21T): 36 ± 5.2 µM
IC50 (rat URAT1 r-V22M): 43 ± 2.5 µM
IC50 (rat URAT1 r-L18V): 40 ± 6.1 µM
IC50 (rat URAT1 r-N35S/M481I): 4.43 µM
SMILES: CC(C)(Sc1ccncc1-c1ccc(C#N)c2ccccc12)C(=O)O [Verinurad, 2-((3-(4-cyanonaphthalen-1-yl)pyrindin-4-yl)thio)-2-methylpropanoic acid]
